Measured values taken from patent US3937832A, “Esters of 2,2-diphenyl-cyclopropane-carboxylic acids as cough suppressants” (Societe anonyme dite: Hexachimie, priority 1974, dated 1976).

How the values were obtained:
rats = assay: Acute toxicity, lethal doses two days after intraperitoneal treatment; type: in vivo; conditions: rat
Description: (§1) The products tested are dissolved in a […] sodium chloride solution or, if they are insoluble in this solution, suspended using "Tween 80" (for oral and intraperitoneal administration) or dissolved in polyethylene glycol 300 (for intravenous administration).
The acute toxicity is determined on batches, each of two rats. The doses administered extend from 4 to 512 mg./kg. in geometrical progression, constant ratio 2.
Table II below gives the 0 to 100 (%) lethal doses, two days after treatment, in mg./kg. administered intraperitoneally.

[1] = tested on: subjects suffering from chronic bronchitis; assay: Clinical experiments on subjects suffering from chronic bronchitis; type: in vivo, human; conditions: subjects with chronic bronchitis
Description: Clinical experiments were also carried out with the product of Example 1 on subjects suffering from chronic bronchitis.

[2] = tested on: phenylbenzoquinone-induced reactions (stretching of the body); assay: Antalgic activity: inhibition of phenylbenzoquinone-induced stretching; type: in vivo; conditions: Mus musculus, 1 h, read-out: percentage inhibition relative to control animals; for inhibition in vivo at 16 mg/kg / inhibition in vivo at 64 mg/kg / inhibition in vivo at 32 mg/kg: mice, oral; for inhibition in vivo at 128 mg/kg: po
Description: as §1
The products to be tested are administered orally to batches of six mice each weighing 19-21 g. One hour afterwards, 0.20 ml. of an aqueous-alcoholic solution containing 0.02% of phenylbenzoquinone (phenylbenzoquinone: 20 mg, 96% alcohol; 5 ml; water q.s.p. 100 ml) is injected intraperitoneally. The number of reactions (stretching of the body) from the 5th to the 10th minutes following the injection of phenylbenzoquinone is counted.
Table IV gives the percentage inhibition relative to control animals. __________________________________________________________________________ Compound of Example No. Dose, mg/kg 1 2 3 administered and 4 5 7 9 10 11 12 13 14 15 16 18 19 20 orally 6 17 8 __________________________________________________________________________ 16 10 57 -- 23 -- 25 14 21 22 45 24 35 29 40 43 3 26 32 -- 38 37 -- 0 -- -- -- -- -- -- -- -- -- -- -- -- 64 31 63 -- 17 -- 25 19 46 38 36 24 38 29 28 55 26 38 128 -- -- 41 -- 19 -- -- -- -- -- -- -- -- -- -- -- -- __________________________________________________________________________

[3] = tested on: cough reaction to stimulation of the upper laryngeal nerves; assay: Anti-tussive activity: Domenjoz method (stimulation of upper laryngeal nerves); type: in vivo, cat; design: key: 0: inactive; +: marked diminution of cough; ++: suppression of cough for 5 to 15 minutes; +++: suppression of cough for more than 15 minutes; conditions: anaesthetised cats, intravenous (femoral vein)
Description: as §1
Cats are anaesthetised by intraperitoneal injection of 30 mg./kg. of sodium mebubarbital. The arterial pressure is measured on the femoral artery by a Statham P 23 Db gauge. A tracheotomy is carried out; a Y-shaped cannula allows a part of the air breathed out to be branched off onto a Statham PM 6 gauge; the cardiac rhythm is measured by integration of the QRS complexes of the electrocardiogram. All these measurements are amplified and recorded on a Beckman Dynograph. The two upper laryngeal nerves are very carefully dissected and stimulated for 10 seconds by a surging current generated by a Hugo Sachs Stimulator I: voltage 3 volts, duration […], frequency 50 cycles/second. The test products are injected into the femoral vein. The first stimulation takes place 5 minutes after administration of the product and then every 5 minutes until the reaction returns to the initial amplitude. Each nerve is stimulated in turn (left-hand nerve: 5, 15, 25 minutes etc; right-hand nerve 10, […] minutes etc. after treatment).
+ marked diminution of cough
++ suppression of cough for 5 to 15 minutes
+++ suppression of cough for more than 15 minutes

[4] = Solubility under the conditions of the local anaesthetic test; type: physicochemical; conditions: sodium chloride solution, pH of 6 to 7
Description: This is investigated by the technique of Bulbring and Wajda. The backs of male guinea pigs weighing 350-450 g. are shaved with an electric razor. 0.1 ml. of a solution of the compounds to be tested is injected into the dermis (only those products which are soluble in the sodium chloride solution and give a pH of 6 to 7 are examined). Four points spaced 2 cm apart are marked on the skin, the product being administered at two of these and the solvent being administered at the remaining two. The skin reflex is examined by pricking each point six times with a mounted bristle. The number of positive reactions is counted and an inhibition percentage is calculated from the total number of positive reactions over the course of 30 minutes. Table V gives the inhibition percentages measured as a function of the concentrations of the solutions. The compounds of Examples 7, 18 and 19 are insoluble under the experimental conditions.

Structure (SMILES)	LD0 (rats) [mg/kg]	LD100 (rats) [mg/kg]	effect on cough [1]	facilitation of expectoration [1]	sensation of feeling better [1]	reduction in expectoration ([1]; "the latter" = expectoration)	inhibition in vivo at 16 mg/kg [2] [%]	inhibition in vivo at 64 mg/kg [2] [%]	inhibition in vivo at 32 mg/kg [2] [%]	Rating (anti-tussive activity) [3]	inhibition in vivo at 128 mg/kg [2] [%]	solubility under the experimental conditions [4]
O=C(OCCN1CCCCC1)C1CC1(c1ccccc1)c1ccccc1 (stereo not drawn) [Example 1, β-Piperidino-ethyl ester of 2,2-diphenyl-cyclopropane-carboxylic acid]	64	128	suppression of the cough	facilitation of expectoration	a sensation of feeling better	a reduction in the latter	10	31				
O=C(OCCOCCN1CCCC1)C1CC1(c1ccccc1)c1ccccc1 (centres unmarked) [Example 2, 2-(2'-pyrrolidino-ethoxy)-ethyl ester of 2,2-diphenyl-cyclopropane carboxylic acid]	32	128					57	63	38	+		
O=C(OCCN1CCOCC1)C1CC1(c1ccccc1)c1ccccc1 (stereo not drawn) [Example 3, β-Morpholino-ethyl ester of 2,2-diphenyl-cyclopropane-carboxylic acid]	128	256							37		41	
CN(C)CCOC(=O)C1CC1(c1ccccc1)c1ccccc1 (centres unmarked) [Example 4]	128	256					23	17				
O=C(OCCN1CCCC1)C1CC1(c1ccccc1)c1ccccc1 (centres unmarked) [Example 5]	128	256							0		19	
O=C(OCCN1CCCCCC1)C1CC1(c1ccccc1)c1ccccc1 (centres unmarked) [Example 7]	64	128					25	25				insoluble
CN1CCN(CCOC(=O)C2CC2(c2ccccc2)c2ccccc2)CC1 (centres unmarked) [Example 9]	64	128					14	19		+		
CC1CCCN(CCOC(=O)C2CC2(c2ccccc2)c2ccccc2)C1 (centres unmarked) [Example 10]	64	256					21	46				
CC1CCN(CCOC(=O)C2CC2(c2ccccc2)c2ccccc2)CC1 (centres unmarked) [Example 11]	64	256					22	38		+		
CC1CCCC(C)N1CCOC(=O)C1CC1(c1ccccc1)c1ccccc1 (centres unmarked) [Example 12]	32	128					45	36				
Cc1ccc(C2(c3ccc(C)cc3)CC2C(=O)OCCN2CCCC2)cc1 (centres unmarked) [Example 13]	128	256					24	24				
Cc1ccc(C2(c3ccc(C)cc3)CC2C(=O)OCCN2CCCCC2)cc1 (centres unmarked) [Example 14]	256	512					35	38				
O=C(OCCN1CCCCC1)C1CC1(c1ccc(Cl)cc1)c1ccc(Cl)cc1 (centres unmarked) [Example 15]	128	256					29	29		+		
COc1ccc(C2(c3ccc(OC)cc3)CC2C(=O)OCCN2CCCCC2)cc1 (centres unmarked) [Example 16]	128	512					40	28		+		
O=C(OCCOCCN1CCCCC1)C1CC1(c1ccccc1)c1ccccc1 (centres unmarked) [Example 18]	64	256					43	55				insoluble
O=C(OCCOCCN1CCCCCC1)C1CC1(c1ccccc1)c1ccccc1 (centres unmarked) [Example 19]	64	128					3	26		+		insoluble
CN1CCN(CCOCCOC(=O)C2CC2(c2ccccc2)c2ccccc2)CC1 (centres unmarked) [Example 20]	64	128					26	38		+		
